{
  "source": "patent US20240299504A1",
  "about": "“COMPOSITIONS AND METHODS FOR TREATING ALZHEIMERS DISEASE” (priority 2023, published 2024)",
  "key": {"5×FAD mice [1]": {"tested_on": "5×FAD mice", "assay": "Micro-computed tomography (μCT) of femurs, bone phenotype", "format": "in vivo, mouse", "conditions": "femur μCT, 6-MO female 5×FAD vs WT mice; hPTH1-34 50 μg/Kg s.c. once daily, 5 days per week from 2-MO", "experimental": "(§1) Parathyroid hormone (human) was purchased from TOCRIS Bioscience (Cat #3011/1, Abingdon, United Kingdom). WT or 5×FAD mice (both male and female) were treated with PTH1-34 intermittently [once daily injection of hPTH1-34 (50 μg/Kg) or vehicle (0.9% sodium chloride) (as a control) by subcutaneous injection, starting at 2-MO, 5 days per week] as described previously. Mice were then subjected to behavioral tests and sacrificed for examinations of their bone and brain phenotypes at the indicated ages.\nFemurs of WT and 5×FAD female mouse with or without PTH1-34 treatment were detached and fixed overnight in 10% formalin and stored in PBS for further characterization by microCT (μCT). The excised femurs were placed vertically in a 12-mm-diameter scanning holder and scanned using the Scanco μCT40 (Scanco Medical AG). Settings parameters are adjusted as previously described: […], 55 kVp, and 145 μA with an integration time of 200 ms. For the cortical analysis, the bone was scanned at the midshaft of the bone for a scan of 25 slices, and the threshold for cortical bone was set at 329. The 3D reconstruction was performed using all outlined slices and analyzed by μCT evaluation program (v.6.5-2; Scanco Medical). Data were obtained on bone volume (BV), total volume (TV), BV/TV, bone density, and cortical thickness for cortical bone. […]"}, "PYD (pyridinoline)": {"tested_on": "PYD (pyridinoline)", "assay": "Serum PYD ELISA (bone resorption marker)", "format": "in vivo, mouse", "conditions": "6-MO female 5×FAD mice, compared to WT controls; 50 μg/Kg s.c. intermittent", "experimental": "as §1\nSubmandibular blood collection was performed in anesthetized mice. A swift lancing motion is used to puncture the vessel. Blood sample (up to 200 μl) was collected with a pipette or other collection tube, allowed to stand at room temperature for 30 min and centrifuged for 15 min at 3000 rpm. Supernatant serum was aliquot and frozen at −80° C. until use. Mouse serum levels of osteocalcin (a marker for bone formation), PYD (pyridinoline, a marker for bone resorption), and PTH were measured using mouse osteocalcin Elisa kit (QUIDEL Corporation), METRA Serum PYD EIA kit (QUIDEL Corporation, San Diego, CA, USA), and mouse PTH Elisa kit (MyBioSource), respectively, following the manufacturers' instruction."}, "5×FAD mice [2]": {"tested_on": "5×FAD mice", "assay": "Y-maze test", "format": "in vivo, mouse", "conditions": "5×FAD female mice ~5-MO vs Veh-treated 5×FAD female", "experimental": "as §1\nMice (female and male) at the age of ˜5-MO were subjected to behavioral studies. The experimental procedures are described as previously. […] The total arm entries and the number of tri-ads were recorded to quantify the percentage of spontaneous alternation. For novel object recognition (NOR), which tests mouse's memory ability for a novel object, 20 min were recorded to analyze the time to explore the old object vs. the new object of each mouse. […] During test trials, one of the objects was replaced with a new object and mice were free to explore for another 20 min, and the time spent exploring the new object and the old object was recorded. The discrimination index is quantified as the novelty object preference, which is the time spent exploring the new object minus the time exploring the old object over the total exploration time."}, "5×FAD astrocytes": {"tested_on": "5×FAD astrocytes", "assay": "RT-qPCR of cytokines and chemokines in cultured astrocytes", "format": "cell-based, mouse", "conditions": "cultured 5×FAD astrocytes, 100 ng/ml, 24 h", "experimental": "Total RNA was extracted from cortex, hippocampus, or cultured astrocytes using a TRizol reagent (Invitrogen, cat #15596-026, Carlsbad, CA, USA) as previously described. Purified RNA (1-5 μg) was used for cDNA synthesis with the Revert Aid First Strand cDNA Synthesis Kit (Thermo Scientific, cat #K1621, Waltham, MA, USA). The cDNA products were subjected to subsequent quantitative PCR (qPCR) using the QuantiFast SYBR Green PCR Kit (QIA-GEN, cat #204057, Hilden, Germany) with a qPCR System (StepOne Plus). Each sample was repeated at least 3 times, and the mRNA level was normalized to GAPDH using the 2^−ΔΔCt method.\nAstrocyte culture was performed according to the standard protocol with some modifications as described in previous literature. In brief, the cerebral cortex and hippocampus of postnatal day 3 (P3) female pups were dissected under a stereomicroscope and placed in ice-cold calcium- and magnesium-free HBSS (Hanks Balanced Salt Solution). The tissues were digested with 2.5% trypsin-EDTA, 3 ml for each mouse, at 37° C. for 20 min with shaking slightly every 5 min. The digested tissue was blown into single-cell suspension, filtered through a […] filter mesh, pelleted at 900×g for 5 min, and resuspended in growth medium (DMEM plus 10% FBS), which was incubated at 37° C. with 5% CO2. […]"}},
  "data": [
    {"smiles": "CC[C@H](C)[C@H](NC(=O)[C@H](CCC(=O)O)NC(=O)[C@H](CO)NC(=O)[C@@H](NC(=O)[C@@H](N)CO)C(C)C)C(=O)N[C@@H](CCC(N)=O)C(=O)N[C@@H](CC(C)C)C(=O)N[C@@H](CCSC)C(=O)N[C@@H](Cc1cnc[nH]1)C(=O)N[C@@H](CC(N)=O)C(=O)N[C@@H](CC(C)C)C(=O)NCC(=O)N[C@@H](CCCCN)C(=O)N[C@@H](Cc1cnc[nH]1)C(=O)N[C@@H](CC(C)C)C(=O)N[C@@H](CC(N)=O)C(=O)N[C@@H](CO)C(=O)N[C@@H](CCSC)C(=O)N[C@@H](CCC(=O)O)C(=O)N[C@@H](CCCN=C(N)N)C(=O)N[C@H](C(=O)N[C@@H](CCC(=O)O)C(=O)N[C@@H](Cc1c[nH]c2ccccc12)C(=O)N[C@@H](CC(C)C)C(=O)N[C@@H](CCCN=C(N)N)C(=O)N[C@@H](CCCCN)C(=O)N[C@@H](CCCCN)C(=O)N[C@@H](CC(C)C)C(=O)N[C@@H](CCC(N)=O)C(=O)N[C@@H](CC(=O)O)C(=O)N[C@H](C(=O)N[C@@H](Cc1cnc[nH]1)C(=O)N[C@@H](CC(N)=O)C(=O)N[C@@H](Cc1ccccc1)C(=O)O)C(C)C)C(C)C", "note": "[PTH1-34]", "values": [
      {"measurement": "trabecular bone mass (Tb. BV/TV)", "setting": "5×FAD mice [1]", "value": "more trabecular bone mass was induced in 5×FAD mice than that in WT mice"},
      {"measurement": "serum PYD levels", "setting": "PYD (pyridinoline)", "value": "little to no effect on serum PYD levels in 5×FAD mice"},
      {"measurement": "Y maze total arm entries", "setting": "5×FAD mice [2]", "value": "comparable arm entries to those of Veh-treated 5×FAD female mice"},
      {"measurement": "expression of cytokines or chemokines (TNF-α, TGF-β1, CCL5, GM-CSF, RANK)", "setting": "5×FAD astrocytes", "value": "Nearly all these factors (except GM CSF) were reduced"}
    ]}
  ]
}
